In patent US7332501B2, “Indol-3-yl-carbonyl-spiro-piperidine derivatives as V1a receptor antagonists” (Hoffmann-La Roche Inc., priority 2005, dated 2008):
pKi: −log10 of the molar value.

The compounds below were run against T1, human V1a receptor (Homo sapiens, UniProt P37288) (assay: human V1a receptor binding (3H-Vasopressin SPA, HEK293 membranes)). Settings: displacement of 4 nM 3H-Vasopressin, membranes of HEK293 cells transiently transfected with human V1a receptor; Ki from IC50 by Cheng-Prussoff.
T1 construct: expressed in transfected cells; host or cells: HEK293 cells, transiently transfected; cell membranes
T1 sequence (P37288 whole entry): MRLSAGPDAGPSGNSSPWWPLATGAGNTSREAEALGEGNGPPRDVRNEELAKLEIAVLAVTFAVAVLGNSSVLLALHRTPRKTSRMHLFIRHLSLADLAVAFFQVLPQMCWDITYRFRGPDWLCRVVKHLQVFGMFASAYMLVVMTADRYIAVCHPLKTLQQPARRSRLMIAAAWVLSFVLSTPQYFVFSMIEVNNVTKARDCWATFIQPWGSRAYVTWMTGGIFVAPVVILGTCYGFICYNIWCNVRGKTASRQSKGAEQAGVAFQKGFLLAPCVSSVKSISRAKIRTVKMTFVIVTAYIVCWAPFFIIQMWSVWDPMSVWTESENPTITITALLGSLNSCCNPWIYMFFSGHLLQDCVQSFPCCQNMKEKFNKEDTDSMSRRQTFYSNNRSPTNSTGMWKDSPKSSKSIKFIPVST
In short: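 Transiently transfected HEK293 membranes on yttrium silicate SPA beads in Tris binding buffer (120 mM NaCl, 5 mM KCl, 2 mM CaCl2, 10 mM MgCl2). 3H-vasopressin added as 4 nM working solution; excess cold vasopressin set non-specific binding. 1 h at room temperature, then counting; Ki from fitted IC50 via Cheng-Prusoff.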
Cc1c(C(=O)N2CCC3(CC2)OC(=O)c2cc(F)ccc23)c2ccccc2n1Cc1ccccc1 [Example 23, 1′-[(1-benzyl-2-methyl-1H-indol-3-yl)carbonyl]-5-fluoro-3H-spiro[2-benzofuran-1,4′-piperidin]-3-one] gave a pKi of 7.96.
O=C1OC2(CCN(C(=O)c3cn(Cc4cnccn4)c4cc(Cl)ccc34)CC2)c2ccc(F)cc21 [Example 173, 1′-{[6-Chloro-1-(pyrazin-2-ylmethyl)-1H-indol-3-yl]carbonyl}-5-fluoro-3H-spiro[2-benzofuran-1,4′-piperidin]-3-one] showed a pKi of 8.64.
Cc1c(C(=O)N2CCC3(CC2)OC(=O)c2cccc(Cl)c23)c2ccccc2n1Cc1ccccc1 [Example 14, 1′-[(1-benzyl-2-methyl-1H-indol-3-yl)carbonyl]-7-chloro-3H-spiro[2-benzofuran-1,4′-piperidin]-3-one] was tested, and the pKi was 7.95.
For Cc1c(C(=O)N2CCC3(CC2)OCc2ccccc23)c2ccccc2n1Cc1ccccc1 [Example 39, 1′-[(1-benzyl-2-methyl-1H-indol-3-yl)carbonyl]-3H-spiro[2-benzofuran-1,4′-piperidine]], the pKi was 8.74.
NCCNC(=O)Cn1cc(C(=O)N2CCC3(CC2)OCc2ccccc23)c2ccc(Cl)cc21 [Example 252, N-(2-Aminoethyl)-2-[6-chloro-3-(1′H,3H-spiro[2-benzofuran-1,4′-piperidin]-1′-ylcarbonyl)-1H-indol-1-yl]acetamide] gave a pKi of 8.64.
With Cn1cncc1Cn1cc(C(=O)N2CCC3(CC2)OCc2ccccc23)c2ccc(Cl)cc21 [Example 238] the pKi was 8.72.
With O=C(Cn1cc(C(=O)N2CCC3(CC2)OC(=O)c2ccccc23)c2ccc(Cl)cc21)c1ccccc1F [Example 153, 1′-({6-Chloro-1-[2-(2-fluorophenyl)-2-oxoethyl]-1H-indol-3-yl}carbonyl)-3H-spiro[2-benzofuran-1,4′-piperidin]-3-one] the pKi was 9.00.
CN(CCn1cc(C(=O)N2CCC3(CC2)OCc2ccccc23)c2ccc(Cl)cc21)S(C)(=O)=O [Example 273, N-{2-[6-Chloro-3-(1′H,3H-spiro[2-benzofuran-1,4′-piperidin]-1′-ylcarbonyl)-1H-indol-1-yl]ethyl}-N-methylmethanesulfonamide] gave a pKi of 8.96.
Cc1cc(Cn2cc(C(=O)N3CCC4(CC3)OC(=O)c3cc(F)ccc34)c3ccc(Cl)cc32)ccn1 [Example 161, 1′-({6-Chloro-1-[(2-methylpyridin-4-yl)methyl]-1H-indol-3-yl}carbonyl)-5-fluoro-3H-spiro[2-benzofuran-1,4′-piperidin]-3-one] showed a pKi of 8.66.
In the case of O=C(c1cn(-c2cc(F)cc(F)c2)c2cc(Cl)ccc12)N1CCC2(CC1)OCc1ccccc12 [Example 222], the pKi was 8.40.
Compound O=C1OC2(CCN(C(=O)c3cn(CC4(F)COC4)c4cc(Cl)ccc34)CC2)c2ccc(F)cc21 [Example 188, 1′-({6-Chloro-1-[(3-fluorooxetan-3-yl)methyl]-1H-indol-3-yl}carbonyl)-5-fluoro-3H-spiro[2-benzofuran-1,4′-piperidin]-3-one] has a pKi of 8.80.
Work on CN1CCC[C@H](Cn2cc(C(=O)N3CCC4(CC3)OCc3ccccc34)c3ccc(Cl)cc32)C1 [Example 265, 1′-[(6-Chloro-1-{[(3S)-1-methylpiperidin-3-yl]methyl}-1H-indol-3-yl)carbonyl]-3H-spiro[2-benzofuran-1,4′-piperidine]] yielded a pKi of 8.85.
Work on NCCn1cc(C(=O)N2CCC3(CC2)OCc2ccccc23)c2ccc(Cl)cc21 [Example 253, 2-[6-Chloro-3-(1′H,3H-spiro[2-benzofuran-1,4′-piperidin]-1′-ylcarbonyl)-1H-indol-1-yl]ethanamine] yielded a pKi of 8.11.
Work on Cc1cc(Cn2cc(C(=O)N3CCC4(CC3)OCc3ccccc34)c3ccc(Cl)cc32)on1 [Example 239, 1′-({6-Chloro-1-[(3-methylisoxazol-5-yl)methyl]-1H-indol-3-yl}carbonyl)-3H-spiro[2-benzofuran-1,4′-piperidine]] yielded a pKi of 8.64.
Compound NC(=O)Cn1cc(C(=O)N2CCC3(CC2)OC(=O)c2cc(F)ccc23)c2ccc(Cl)cc21 [Example 115, 2-{6-Chloro-3-[(5-fluoro-3-oxo-1′H,3H-spiro[2-benzofuran-1,4′-piperidin]-1′-yl)carbonyl]-1H-indol-1-yl}acetamide] has a pKi of 7.98.
CN1CCn2c(c(C(=O)N3CCC4(CC3)OCc3ccccc34)c3ccccc32)C1 [Example 276, 1′-[(2-Methyl-1,2,3,4-tetrahydropyrazino[1,2-a]indol-10-yl)carbonyl]-3H-spiro[2-benzofuran-1,4′-piperidine]] showed a pKi of 7.92.
CC(C)(C)OC(=O)N1CCOC(Cn2cc(C(=O)N3CCC4(CC3)OCc3ccccc34)c3ccc(Cl)cc32)C1 (stereo not shown) [Example 247, tert-Butyl 2-{[6-chloro-3-(1′H,3H-spiro[2-benzofuran-1,4′-piperidin]-1′-ylcarbonyl)-1H-indol-1-yl]methyl}morpholine-4-carboxylate] gave a pKi of 8.64.
Work on CC(C)(C)OC(=O)Cn1cc(C(=O)N2CCC3(CC2)OC(=O)c2cc(F)ccc23)c2ccc(Cl)cc21 [Example 112, tert-Butyl {6-chloro-3-[(5-fluoro-3-oxo-1′H,3H-spiro[2-benzofuran-1,4′-piperidin]-1′-yl)carbonyl]-1H-indol-1-yl}acetate] yielded a pKi of 8.70.
Compound CN(C)C(=O)Cn1cc(C(=O)N2CCC3(CC2)CNc2ccccc23)c2ccc(Cl)cc21 [Example 100, 2-[6-Chloro-3-(1,2-dihydro-1′H-spiro[indole-3,4′-piperidin]-1′-ylcarbonyl)-1H-indol-1-yl]-N,N-dimethylacetamide] has a pKi of 8.47.
